Assay results reported in patent publication US11702404B2, “GLP-1R modulating compounds” (priority 2019, dated 2023).
pEC50: −log10 of the molar value.

Biological target: GLP-1R (Homo sapiens, UniProt P43220)
Assay: GLP-1R activation: cAMP increase in CHO cells stably expressing GLP-1R
Format: cell-based
Settings: cAMP increase, CHO cells stably expressing GLP-1R, 10 point dose response, 30 minutes incubation; read-out: EC50

Sequence of GLP-1R (P43220 24-463): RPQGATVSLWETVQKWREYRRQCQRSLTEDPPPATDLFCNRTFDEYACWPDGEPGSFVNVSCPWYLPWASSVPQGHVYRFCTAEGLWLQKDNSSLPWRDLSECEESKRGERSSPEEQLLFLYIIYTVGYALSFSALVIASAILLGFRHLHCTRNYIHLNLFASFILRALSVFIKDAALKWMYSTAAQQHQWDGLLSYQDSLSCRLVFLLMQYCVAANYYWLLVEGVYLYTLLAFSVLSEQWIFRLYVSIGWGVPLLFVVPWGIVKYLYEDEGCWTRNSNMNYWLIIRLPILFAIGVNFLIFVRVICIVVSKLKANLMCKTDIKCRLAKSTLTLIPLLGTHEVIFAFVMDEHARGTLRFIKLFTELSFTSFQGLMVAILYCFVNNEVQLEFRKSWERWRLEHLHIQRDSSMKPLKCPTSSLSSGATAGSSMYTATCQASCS

**Q.** With `COCC1(Cn2c(Cc3cc(F)c(-c4cccc(OCc5ccc(C#N)cc5F)n4)cc3F)nc3ccc(C(=O)O)cc32)CCC1` [Example 743] as the molecule, how does the pEC50 read?
**A.** Its pEC50 is 8.61.

**Q.** With `CO[C@H]1C[C@@H](Cn2c(Cc3cc(F)c(-c4cccc(OCc5ccc(C#N)cc5F)n4)cc3F)nc3ccc(C(=O)O)cc32)C1` [Example 744] as the molecule, how does the pEC50 read?
**A.** Its pEC50 is 7.98.

**Q.** With `CO[C@H]1C[C@H](Cn2c(Cc3cc(F)c(-c4cccc(OCc5ccc(C#N)cc5F)n4)cc3F)nc3ccc(C(=O)O)cc32)C1` [Example 745] as the molecule, how does the pEC50 read?
**A.** Its pEC50 is 7.08.

**Q.** With `COC1(Cn2c(Cc3cc(F)c(-c4cccc(OCc5ccc(C#N)cc5F)n4)cc3F)nc3ccc(C(=O)O)cc32)CC1` [Example 746] as the molecule, how does the pEC50 read?
**A.** The pEC50 was 9.06.

**Q.** With `COC1(Cn2c(Cc3cc(F)c(-c4cccc(OCc5ccc(C#N)cc5F)n4)cc3F)nc3ccc(C(=O)O)cc32)CCC1` [Example 747] as the molecule, how does the pEC50 read?
**A.** The pEC50 was 9.09.

**Q.** With `Cc1nnc(Cn2c(Cc3cc(F)c(-c4cccc(OCc5ccc(C#N)cc5F)n4)cc3F)nc3ccc(C(=O)O)cc32)o1` [Example 748] as the molecule, how does the pEC50 read?
**A.** Its pEC50 is 5.88.

**Q.** With `O=C(O)c1ccc2nc(Cc3c(F)cc(-c4cccc(OCc5ccc(C(F)F)cc5F)n4)c(F)c3F)n(Cc3ncco3)c2c1` [Example 749] as the molecule, how does the pEC50 read?
**A.** The pEC50 was 9.48.

**Q.** With `COCCn1c(Cc2c(F)cc(-c3cccc(OCc4ccc(C(F)F)cc4F)n3)c(F)c2F)nc2ccc(C(=O)O)cc21` [Example 750] as the molecule, how does the pEC50 read?
**A.** Its pEC50 is 8.90.

**Q.** With `N#CCC1(Cn2c(Cc3cc(F)c(-c4ccnc(OCc5ccc(C(F)F)cc5F)n4)cc3F)nc3ccc(C(=O)O)cc32)CC1` [Example 751] as the molecule, how does the pEC50 read?
**A.** The pEC50 was 9.72.

**Q.** With `COCCn1c(Cc2cc(F)c(-c3ccc(F)c(OCc4ccc(C(F)F)cc4F)n3)cc2F)nc2ccc(C(=O)O)cc21` [Example 752] as the molecule, how does the pEC50 read?
**A.** The pEC50 was 9.29.

**Q.** With `COCCn1c(Cc2cc(F)c(-c3cccc(OCc4ccc(C#N)cc4F)n3)cc2CO)nc2ccc(C(=O)O)cc21` [Example 753] as the molecule, how does the pEC50 read?
**A.** The pEC50 was 9.13.

**Q.** With `O=C(O)c1ccc2nc(Cc3cc(F)c(-c4nccc(OCc5ccc(C(F)(F)F)cc5F)n4)cc3F)n(C[C@@H]3CCO3)c2c1` [Example 754] as the molecule, how does the pEC50 read?
**A.** Its pEC50 is 9.82.

**Q.** With `N#Cc1cc(F)c(COc2ccnc(-c3cc(F)c(Cc4nc5ccc(C(=O)O)cc5n4C[C@@H]4CCO4)cc3F)n2)cc1F` [Example 755] as the molecule, how does the pEC50 read?
**A.** Its pEC50 is 9.38.

**Q.** With `O=C(O)c1ccc2nc(Cc3c(F)cc(-c4cccc(OCc5ccc(C(F)F)cc5F)n4)c(F)c3F)n(CC34CC(CO3)C4)c2c1` [Example 756] as the molecule, how does the pEC50 read?
**A.** Its pEC50 is 8.85.

**Q.** With `O=C(O)c1ccc2nc(Cc3c(F)cc(-c4cccc(OCc5ccc(C(F)F)cc5F)n4)c(F)c3F)n(C[C@@H]3CCO3)c2c1` [Example 758] as the molecule, how does the pEC50 read?
**A.** Its pEC50 is 10.52.

**Q.** With `O=C(O)c1ccc2nc(Cc3cc(F)c(-c4cccc(OCc5ccc(Cl)nc5OC(F)F)n4)cc3F)n(C[C@@H]3CCO3)c2c1` [Example 759] as the molecule, how does the pEC50 read?
**A.** The pEC50 was 9.19.

**Q.** With `N#Cc1ccc(COc2ccc(F)c(-c3cc(F)c(Cc4nc5c(F)cc(C(=O)O)cc5n4CC4(CF)CC4)cc3F)n2)c(F)c1` [Example 760] as the molecule, how does the pEC50 read?
**A.** Its pEC50 is 9.59.

**Q.** With `COCCn1c(Cc2cc(F)c(-c3ccc(F)c(OCc4ccc(C(F)(F)F)cc4F)n3)cc2F)nc2c(F)cc(C(=O)O)cc21` [Example 761] as the molecule, how does the pEC50 read?
**A.** The pEC50 was 9.29.

**Q.** With `COCCn1c(Cc2cc(F)c(-c3ccc(F)c(OCc4ccc(C(F)F)cc4F)n3)cc2F)nc2c(F)cc(C(=O)O)cc21` [Example 762] as the molecule, how does the pEC50 read?
**A.** Its pEC50 is 9.05.

**Q.** With `COCCn1c(Cc2cc(F)c(-c3ccc(F)c(OCc4ccc(C#N)cc4F)n3)cc2F)nc2c(F)cc(C(=O)O)cc21` [Example 764] as the molecule, how does the pEC50 read?
**A.** The pEC50 was 9.12.

**Q.** With `O=C(O)c1cc(F)c2nc(Cc3cc(F)c(-c4ccc(F)c(OCc5ccc(C(F)(F)F)cc5F)n4)cc3F)n(C[C@@H]3CCO3)c2c1` [Example 765] as the molecule, how does the pEC50 read?
**A.** The pEC50 was 9.29.

**Q.** With `N#Cc1cc(F)c(COc2nc(-c3cc(F)c(Cc4nc5c(F)cc(C(=O)O)cc5n4C[C@@H]4CCO4)cc3F)ccc2F)cc1F` [Example 766] as the molecule, how does the pEC50 read?
**A.** The pEC50 was 9.89.

Same assay, conditions: read-out: EC50

**Q.** With `CS(=O)(=O)N1CCC[C@@H]1Cn1c(Cc2cc(F)c(-c3cccc(OCc4ccc(C#N)cc4F)n3)cc2F)nc2ccc(C(=O)O)cc21` [Example 735] as the molecule, how does the pEC50 read?
**A.** Its pEC50 is 8.77.

**Q.** With `N#Cc1ccc(COc2cccc(-c3cc(F)c(Cc4nc5ccc(C(=O)O)cc5n4CC4CC5CCN4CC5)cc3F)n2)c(F)c1` (stereo not drawn) [Example 740] as the molecule, how does the pEC50 read?
**A.** The pEC50 was 5.93.

System: not listed separately
Assay: Microsomal stability, human liver microsomes (predicted hepatic clearance)
Settings: predicted from in vitro microsomal stability data

**Q.** With `CS(=O)(=O)N1CCC[C@@H]1Cn1c(Cc2cc(F)c(-c3cccc(OCc4ccc(C#N)cc4F)n3)cc2F)nc2ccc(C(=O)O)cc21` [Example 735] as the molecule, how does the “Predicted Hepatic Clearance (Pred. Cl.)” value read?
**A.** Its value is 7.17 mL/min/kg.

**Q.** With `N#Cc1ccc(COc2cccc(-c3cc(F)c(Cc4nc5ccc(C(=O)O)cc5n4CC4CC5CCN4CC5)cc3F)n2)c(F)c1` (stereo not drawn) [Example 740] as the molecule, how does the “Predicted Hepatic Clearance (Pred. Cl.)” value read?
**A.** Its value is 2.17 mL/min/kg.

**Q.** Which “Predicted Hepatic Clearance (Pred. Cl.)” value does the source give for `COCC1(Cn2c(Cc3cc(F)c(-c4cccc(OCc5ccc(C#N)cc5F)n4)cc3F)nc3ccc(C(=O)O)cc32)CCC1` [Example 743] here?
**A.** Its value is 6.67 mL/min/kg.

**Q.** Which “Predicted Hepatic Clearance (Pred. Cl.)” value does the source give for `CO[C@H]1C[C@@H](Cn2c(Cc3cc(F)c(-c4cccc(OCc5ccc(C#N)cc5F)n4)cc3F)nc3ccc(C(=O)O)cc32)C1` [Example 744] here?
**A.** Its value is 1.83 mL/min/kg.

**Q.** With `CO[C@H]1C[C@H](Cn2c(Cc3cc(F)c(-c4cccc(OCc5ccc(C#N)cc5F)n4)cc3F)nc3ccc(C(=O)O)cc32)C1` [Example 745] as the molecule, how does the “Predicted Hepatic Clearance (Pred. Cl.)” value read?
**A.** Its value is 1.83 mL/min/kg.

**Q.** For `COC1(Cn2c(Cc3cc(F)c(-c4cccc(OCc5ccc(C#N)cc5F)n4)cc3F)nc3ccc(C(=O)O)cc32)CC1` [Example 746], which “Predicted Hepatic Clearance (Pred. Cl.)” value is on record?
**A.** The value was 5 mL/min/kg.

**Q.** Which “Predicted Hepatic Clearance (Pred. Cl.)” value does the source give for `COC1(Cn2c(Cc3cc(F)c(-c4cccc(OCc5ccc(C#N)cc5F)n4)cc3F)nc3ccc(C(=O)O)cc32)CCC1` [Example 747] here?
**A.** Its value is 7.33 mL/min/kg.

**Q.** With `Cc1nnc(Cn2c(Cc3cc(F)c(-c4cccc(OCc5ccc(C#N)cc5F)n4)cc3F)nc3ccc(C(=O)O)cc32)o1` [Example 748] as the molecule, how does the “Predicted Hepatic Clearance (Pred. Cl.)” value read?
**A.** Its value is 1.83 mL/min/kg.

**Q.** For `O=C(O)c1ccc2nc(Cc3c(F)cc(-c4cccc(OCc5ccc(C(F)F)cc5F)n4)c(F)c3F)n(Cc3ncco3)c2c1` [Example 749], which “Predicted Hepatic Clearance (Pred. Cl.)” value is on record?
**A.** Its value is 4.33 mL/min/kg.

**Q.** Which “Predicted Hepatic Clearance (Pred. Cl.)” value does the source give for `COCCn1c(Cc2c(F)cc(-c3cccc(OCc4ccc(C(F)F)cc4F)n3)c(F)c2F)nc2ccc(C(=O)O)cc21` [Example 750] here?
**A.** The value was 4.17 mL/min/kg.

**Q.** For `N#CCC1(Cn2c(Cc3cc(F)c(-c4ccnc(OCc5ccc(C(F)F)cc5F)n4)cc3F)nc3ccc(C(=O)O)cc32)CC1` [Example 751], which “Predicted Hepatic Clearance (Pred. Cl.)” value is on record?
**A.** Its value is 7.17 mL/min/kg.

**Q.** For `COCCn1c(Cc2cc(F)c(-c3ccc(F)c(OCc4ccc(C(F)F)cc4F)n3)cc2F)nc2ccc(C(=O)O)cc21` [Example 752], which “Predicted Hepatic Clearance (Pred. Cl.)” value is on record?
**A.** Its value is 1.83 mL/min/kg.

**Q.** For `COCCn1c(Cc2cc(F)c(-c3cccc(OCc4ccc(C#N)cc4F)n3)cc2CO)nc2ccc(C(=O)O)cc21` [Example 753], which “Predicted Hepatic Clearance (Pred. Cl.)” value is on record?
**A.** The value was 10.3 mL/min/kg.

**Q.** With `O=C(O)c1ccc2nc(Cc3cc(F)c(-c4nccc(OCc5ccc(C(F)(F)F)cc5F)n4)cc3F)n(C[C@@H]3CCO3)c2c1` [Example 754] as the molecule, how does the “Predicted Hepatic Clearance (Pred. Cl.)” value read?
**A.** The value was 6 mL/min/kg.

**Q.** Which “Predicted Hepatic Clearance (Pred. Cl.)” value does the source give for `N#Cc1cc(F)c(COc2ccnc(-c3cc(F)c(Cc4nc5ccc(C(=O)O)cc5n4C[C@@H]4CCO4)cc3F)n2)cc1F` [Example 755] here?
**A.** The value was 9.83 mL/min/kg.

**Q.** For `O=C(O)c1ccc2nc(Cc3c(F)cc(-c4cccc(OCc5ccc(C(F)F)cc5F)n4)c(F)c3F)n(CC34CC(CO3)C4)c2c1` [Example 756], which “Predicted Hepatic Clearance (Pred. Cl.)” value is on record?
**A.** The value was 7.67 mL/min/kg.

**Q.** With `O=C(O)c1ccc2nc(Cc3c(F)cc(-c4cccc(OCc5ccc(C(F)F)cc5F)n4)c(F)c3F)n(C[C@@H]3CCO3)c2c1` [Example 758] as the molecule, how does the “Predicted Hepatic Clearance (Pred. Cl.)” value read?
**A.** Its value is 4.5 mL/min/kg.

**Q.** With `O=C(O)c1ccc2nc(Cc3cc(F)c(-c4cccc(OCc5ccc(Cl)nc5OC(F)F)n4)cc3F)n(C[C@@H]3CCO3)c2c1` [Example 759] as the molecule, how does the “Predicted Hepatic Clearance (Pred. Cl.)” value read?
**A.** The value was 1.83 mL/min/kg.

**Q.** With `N#Cc1ccc(COc2ccc(F)c(-c3cc(F)c(Cc4nc5c(F)cc(C(=O)O)cc5n4CC4(CF)CC4)cc3F)n2)c(F)c1` [Example 760] as the molecule, how does the “Predicted Hepatic Clearance (Pred. Cl.)” value read?
**A.** The value was 6.5 mL/min/kg.

**Q.** With `COCCn1c(Cc2cc(F)c(-c3ccc(F)c(OCc4ccc(C(F)(F)F)cc4F)n3)cc2F)nc2c(F)cc(C(=O)O)cc21` [Example 761] as the molecule, how does the “Predicted Hepatic Clearance (Pred. Cl.)” value read?
**A.** Its value is 1.83 mL/min/kg.

**Q.** Which “Predicted Hepatic Clearance (Pred. Cl.)” value does the source give for `COCCn1c(Cc2cc(F)c(-c3ccc(F)c(OCc4ccc(C(F)F)cc4F)n3)cc2F)nc2c(F)cc(C(=O)O)cc21` [Example 762] here?
**A.** The value was 1.83 mL/min/kg.

**Q.** Which “Predicted Hepatic Clearance (Pred. Cl.)” value does the source give for `COCCn1c(Cc2cc(F)c(-c3ccc(F)c(OCc4ccc(C#N)cc4F)n3)cc2F)nc2c(F)cc(C(=O)O)cc21` [Example 764] here?
**A.** Its value is 3.17 mL/min/kg.

**Q.** Which “Predicted Hepatic Clearance (Pred. Cl.)” value does the source give for `O=C(O)c1cc(F)c2nc(Cc3cc(F)c(-c4ccc(F)c(OCc5ccc(C(F)(F)F)cc5F)n4)cc3F)n(C[C@@H]3CCO3)c2c1` [Example 765] here?
**A.** The value was 1.83 mL/min/kg.

**Q.** For `N#Cc1cc(F)c(COc2nc(-c3cc(F)c(Cc4nc5c(F)cc(C(=O)O)cc5n4C[C@@H]4CCO4)cc3F)ccc2F)cc1F` [Example 766], which “Predicted Hepatic Clearance (Pred. Cl.)” value is on record?
**A.** The value was 3 mL/min/kg.
